Results: PubChem BioAssay AID1194 (EPA DSSTox, 2008)
Calls of active or inactive are those of the source.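 How the source made its calls: active means chemicals rated mutagenic or weakly mutagenic in the Salmonella bacterial test by one literature review, or positive overall by another; inconclusive means no clear call, values can overlap the other calls; inactive means the rest.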

Tested on: Salmonella typhimurium Ames mutagenicity, literature compiled
Experiment: DSSTox (CPDBAS) Carcinogenic Potency Database Salmonella Mutagenicity
From the text: The Carcinogenic Potency Database (CPDB) is a unique and widely used international resource of the results of over 6500 chronic, long-term animal cancer tests on over 1500 chemical substances. The CPDB provides easy access to the bioassay literature, with qualitative and quantitative analyses of both positive and negative experiments that have been published over the past 50 years in the general literature and by the National Cancer Institute/National Toxicology Program. The CPDB standardizes the diverse literature of cancer bioassays that vary widely in protocol, histopathological examination and nomenclature, and in the published author's choices of what information to provide in their papers. Results are reported in the CPDB for tests in rats, mice, hamsters, dogs, and nonhuman primates, and are based on the most positive result among all experiments for each sex-species. The DSSTox CPDBAS (all species) file incorporates data from the CPDB Summary Tables for the full list of over 1500 chemical substances tested in at least one species.
A chemical is classified within the CPDB as mutagenic, i.e. "active", in the Salmonella assay if it was evaluated overall as either "mutagenic" or "weakly mutagenic" by Zeiger [Zeiger, E. (1997) Genotoxicity Database. In: Gold and Zeiger, Eds. Handbook of Carcinogenic Potency and Genotoxicity Databases. Boca Raton, FL: CRC Press, pp. 687-729. http://potency.berkeley.edu/CRCbook.html] or as overall "positive" by the EPA Gene-Tox Program [Kier et al. (1986) Mutat. Res. 168: 69-240].

SMILES	outcome
COP(=S)(OC)SCn1nnc2ccccc2c1=O	active; inactive
Cc1ccc(NC(N)=O)cc1	inactive; active
O=CC1CO1 (stereo not given)	active
CC(N)Cc1ccccc1 (stereo not given)	inactive
C=CCCl	active; inactive
CC(=O)Nc1cccc2c1-c1ccccc1C2	active; inactive
CCOC(=O)N(CC)N=O	active; inactive
COc1cc(CNC(=O)CCCC/C=C/C(C)C)ccc1O	inactive; active
C=CC(O)c1ccc2c(c1)OCO2 (stereo not given)	inactive
[O]=[Mo](=[O])=[O]	inactive; active
CC(Cl)CCl (stereo not given)	active; inactive
O=P(OCCCl)(OCCCl)OCCCl	inactive
ClC(Cl)Cl	inactive
C[C@]12C=CC(=O)C=C1CC[C@@H]1[C@@H]2C(=O)C[C@@]2(C)[C@H]1CC[C@]2(O)C(=O)CO	active
Cc1cc(C)nc(NS(=O)(=O)c2ccc(N)cc2)n1	inactive
Nc1ncn[nH]1	inactive; active
C[C@]12C=CC(=O)C=C1CC[C@@H]1[C@@H]2[C@@H](O)C[C@@]2(C)[C@H]1CC[C@]2(O)C(=O)CO	inactive; active
C=CCOC(=O)CC(C)C	inactive; active
CCCc1cc(=O)[nH]c(=S)[nH]1	inactive; active
COc1ccc([N+](=O)[O-])cc1N=Nc1c(O)c(C(=O)Nc2cccc([N+](=O)[O-])c2)cc2ccccc12	active; inactive
NNC(N)=O	inactive
COc1ccc(N)c(C)c1	active; inactive
CCC(Cl)CCC(Cl)C(Cl)CC(Cl)C(Cl)C(Cl)CCl (stereo not given)	inactive; active
COS(C)(=O)=O	active
CN(C)CCN(Cc1cccs1)c1ccccn1	inactive; active

SMILES	outcome
CN(C)c1ccccc1	inactive
O=C1C=C2C(=CCOC2O)O1 (stereo not given)	inactive; active
O=NN1CCC(=O)NC1=O	active; inactive
Clc1ccc2c(c1)Oc1ccc(Cl)cc1O2	inactive
O=C(O)c1ccc([N+](=O)[O-])cc1	active
OCCN(CCO)c1nc(-c2cccs2)nc2ccccc12	inactive
CC1(C)COC1=O	active
CC#N	inactive
Nc1ccc2ccccc2c1	active; inactive
FC(F)OC(F)(F)C(F)Cl (stereo not given)	inactive; active
CC(O)COC(C)(C)C (stereo not given)	active; inactive
C=CCOC(=O)c1ccccc1C(=O)OCC=C	inactive; active
CNC(=O)O/N=C/C(C)(C)SC	inactive
CN(C)CNc1nnc(/C=C/c2ccc([N+](=O)[O-])o2)o1	active
[O-][Br+2]([O-])O	active
Clc1ccc(C(c2ccccc2Cl)C(Cl)Cl)cc1 (stereo not given)	inactive
O=NN1CCC1	active; inactive
Cc1cc(C)c(S(=O)(=O)O)cc1N=Nc1cc(S(=O)(=O)O)c2ccccc2c1O	inactive; active
F	inactive; active
CCc1ccccc1	inactive
O=S(=O)(O)c1c(N=Nc2c(O)ccc3ccccc23)ccc2ccccc12	inactive; active
COc1cc(-c2ccc(N=Nc3c(S(=O)(=O)O)cc4cc(S(=O)(=O)O)cc(N)c4c3O)c(OC)c2)ccc1N=Nc1c(S(=O)(=O)O)cc2cc(S(=O)(=O)O)cc(N)c2c1O	active
NC(=O)N(CCO)N=O	active
ClC1=C(Cl)[C@]2(Cl)[C@@H]3[C@H]4C[C@H]([C@@H]5O[C@H]45)[C@@H]3[C@@]1(Cl)C2(Cl)Cl	inactive; active
CN(C)C(=O)Cl	active

SMILES	outcome
O=C1CCCCCN1	inactive; active
NC(=S)NNC(N)=S	inactive; inconclusive
O=c1ccc(=O)[nH][nH]1	inactive; active
Cc1cc(C(C)(C)C)c(O)c(C(C)(C)C)c1	inactive
ClC1=C(Cl)[C@]2(Cl)[C@@H]3[C@H]4C=CC(C4)[C@@H]3C1(Cl)C2(Cl)Cl	inactive; active
c1ccoc1	inactive
Nc1nc(N)nc(-c2ccc([N+](=O)[O-])o2)n1	active
C#C[C@]1(O)CC[C@H]2[C@@H]3CCc4cc(O)ccc4[C@H]3CC[C@@]21C	inactive
CCCCCC	inactive
O=[N+]([O-])c1ccc2ncccc2c1	active
CCCN(N=O)C(N)=O	active
CCOc1ccc(NC(C)=O)cc1N	active
OCCBr	active
CCCN(CCC)S(=O)(=O)c1ccc(C(=O)O)cc1	inactive; active
CN(N=O)c1ccncc1	inactive; active
NC(=O)c1ccccc1C(N)=O	inactive
CC(N)=S	inactive; active
CCN(CC)C(=O)/C(Cl)=C(\C)OP(=O)(OC)OC	active; inactive
CCC[CH2][Sn]([CH2]CCC)([CH2]CCC)[O][Sn]([CH2]CCC)([CH2]CCC)[CH2]CCC	inactive
Nc1ccc(Cc2ccc(N)cc2)cc1	active
O=C1C(Cl)=C(Cl)C(=O)C(Cl)=C1Cl	active
S=[Se]	active
COCCl	inactive; active
OC[C@@H](O)[C@@H](O)[C@H](O)[C@H](O)CO	inactive; active
O=C1c2ccccc2-c2ccc3c4c(ccc1c24)-c1ccccc1C3=O	inactive; active

SMILES	outcome
Cc1cc(C)c(N=Nc2c(O)c(S(=O)(=O)O)cc3cc(S(=O)(=O)O)ccc23)cc1C	inactive; active
O=C1CCc2ccccc2O1	inactive; active
CCOc1ccccc1C(N)=O	inactive; active
COP(=O)(OC)O/C(=C\Cl)c1cc(Cl)c(Cl)cc1Cl	inactive; active
O=CCCCC=O	active
NCCc1ccc(O)c(O)c1	active
CC(=O)Nc1ccc(O)cc1	inactive; active
ClC(Cl)(Cl)Cl	inactive; active
CCC1CO1 (stereo not given)	active
CC12CCC(CC1)C(C)(C)O2	inactive; active
Cc1cnc2ccc3c(nc(N)n3C)c2n1	active
CCC(O)OC(O)CC (stereo not given)	inactive; active
Cc1c(N)nc(C)c2c1[nH]c1ccccc12	active
CN(N=O)C(=O)N[C@@H]1[C@@H](O)[C@H](O)[C@@H](CO)O[C@@H]1O	active
Cc1ccc(S(=O)(=O)NC(=O)NN2CCCCCC2)cc1	inactive; active
CN(C)c1ccc(C(=O)c2ccc(N(C)C)cc2)cc1	active; inactive
C=CC	active; inactive
CCN(N=O)C(N)=O	active; inactive
COc1ccc([N+](=O)[O-])cc1N	active; inactive
COc1cc(N=Nc2ccccc2)ccc1N	active
CCCNC(=O)NS(=O)(=O)c1ccc(Cl)cc1	inactive; active
C=CBr	active; inactive
CC(C)O	inactive; active
O=NN1CCC(O)C1 (stereo not given)	active
CCCCN(N=O)C(N)=O	active
